Measured values from patent US20080200403A1, “9A-Carbamoyl and Thiocarbamoyl Azalides with Anti-Inflammatory Activity” (GLAXOSMITHKLINE, priority 2005, published 2008).
Where two headings read alike, the source gives them in different places.

Legend:
granulocytes [1] = assay: Inhibition of degranulation of granulocytes (elastase release); format: cell-based, human; settings: for inhibition at 50 µM: Homo sapiens, read-out: Percentage of inhibition of degranulation of granulocytes
Description: (§1) Granulocytes were obtained from heparinized whole blood using density gradient centrifugation. Erythrocytes were sedimented on 3% dextran T-500 (Amersham Pharmacia Biotech AB, Uppsala, Sweden). Leukocytes were centrifuged on Ficoll (Amersham Pharmacia Biotech AB, Uppsala, Sweden) for 35 min at 600 g at 20° C. The pellet of granulocytes was cleared from remaining erythrocytes by a brief hypotonic lysis.
1×10^6 granulocytes, isolated as described above, were resuspended in RPMI-1640 medium (Institute of Immunology, Croatia), and were incubated with 10 or 50 μM of test compound together with cytochalasine B (5 μg/mL) for 2 h at 37° C. Degranulation then was induced by the addition of 0.1 μM fMLP (Sigma, USA) or 0.5 μM A23187 (Calbiochem, USA). The activity of free neutrophil elastase was determined with a chromogenic substrate specific for human neutrophil elastase, such as n-methoxysuccinyl-1-alanyl-1-alanyl-1-prolyl-lvalyl-p-niytoanlide (Sigma Chemical Company, St Louis, Mo., USA) Elastase activity, as a marker of primary granules, was assessed in supernatant using a spectrophotometer at an absorbance of 405 nm. Results are expressed as the percent of inhibition of degranulation in unstimulated cells, and in stimulated cells treated with fMLP or A23187.

granulocytes [2] = assay: Accumulation in granulocytes (LC-MS); format: in vitro ADME; settings: 180 min
Description: as §1
7.5×10^6 granulocytes, isolated as described above, were suspended in 3 mL of RPMI 1640 (Institute of Immunology, Croatia) containing 10 μM of tested macrolide. Samples were incubated at 37° C. for 180 min. Following incubation, the samples were centrifuged through the layer of Poly(dimethylsiloxane-co-diphenylsiloxane), dihydroxy terminated—silicone oil (Aldrich Chemical Company, Milwaukee, USA). The pellet was resuspended in 0.5% Triton X-100 (Sigma, St. Louis, USA) in deionized water (MilliQ, Millipore Corporation, Bedford, USA). The suspension was sonicated, proteins were precipitated with acetonitrile, and the concentration of macrolide in the supernatants was determined by liquid chromatography-mass spectrometry (LC-MS).
Intracellular concentrations of the test compounds were calculated from the mean cell number recovered after centrifuging through silicone oil. According to the literature, about 1 million neutrophils is considered to have a volume of 0.24 μL (Vazifeh et al., Antimicrob Agents Chemo. 1997; 41: 2099-2107). To estimate the extent of macrolide accumulation, the intracellular to extracellular concentration ratio (I/E) was calculated, where E (due to a large volume of incubation medium) was taken as constant (10 μM). Results are expressed relative to azithromycin according to the following equation: % of azithromycin uptake=(I/E of a substance/I/E of azithromycin)×100. I/E values obtained for azithromycin were 164±10.

[3] = A23187 0.5 μM stimulated, compound 50 μM
[4] = fMLP 0.1 μM stimulated, compound 50 μM
[5] = A23187 0.5 μM stimulated, compound 10 μM
[6] = fMLP 0.1 μM stimulated, compound 10 μM

% of azithromycin uptake (granulocytes [2]; 10 μM) [%]	intracellular to extracellular concentration ratio (I/E) (granulocytes [2]; 10 μM)	Structure (SMILES)	inhibition at 50 µM (granulocytes [1]; [3]) [%]	inhibition at 50 µM (granulocytes [1]; [4]) [%]	Percentage of inhibition of degranulation of granulocytes (granulocytes [1]; [5]) [%]	Percentage of inhibition of degranulation of granulocytes (granulocytes [1]; [3]) [%]	Percentage of inhibition of degranulation of granulocytes (granulocytes [1]; [6]) [%]	Percentage of inhibition of degranulation of granulocytes (granulocytes [1]; [4]) [%]	% of azithromycin uptake (granulocytes [2]; granulocytes, 10 μM macrolide, 37° C., (I/E of substance/I/E of azithromycin)×100) [%]
100	164±10	CC[C@H]1OC(=O)[C@H](C)[C@@H](O[C@H]2C[C@@](C)(OC)[C@@H](O)[C@H](C)O2)[C@H](C)[C@@H](O[C@@H]2O[C@H](C)C[C@H](N(C)C)[C@H]2O)[C@](C)(O)C[C@@H](C)CN(C)[C@H](C)[C@@H](O)[C@]1(C)O [Azithromycin, azithromycin, reference compound]	16	36					
		CCC1OC(=O)C(C)C(O)C(C)C(OC2OC(C)CC(N(C)C)C2O)C(C)(O)CC(C)CN(C(=S)NCc2ccccc2)C(C)C(O)C1(C)O (stereo not shown) [Compound 1]			20	27	37	72	
		CCC1OC(=O)C(C)C(OC2CC(C)(OC)C(O)C(C)O2)C(C)C(OC2OC(C)CC(N(C)C)C2O)C(C)(O)CC(C)CN(C(=S)Nc2cccc(F)c2)C(C)C(O)C1(C)O (stereo not shown) [Compound 3]			2	75	25	33	93
